This is an account of results in patent US20070196883A1, “ENZYME” (UNIVERSITY OF DUNDEE, priority 1999, published 2007).

Entries after “also recorded” stand apart in the source; their conditions may differ.

The target of one assay is T1, GST-PIF/PDK1 complex (Homo sapiens, UniProt O15530).
T1 construct: endogenous in cells; host or cells: 293 cells transfected with pEBG2T GST-PIF; endogenous PDK1 co-purified on glutathione-Sepharose
As to the kind of experiment: Phosphorylation of GST-PKBα at Ser473 by GST-PIF/PDK1 (P-473 immunoblot). In kind it is biochemical. Conditions: lipid 10 μM in PtdCho/PtdSer vesicles, MgATP, 60 min 30° C. On the procedure:
FIG. 5. The ability of GST-PIF to phosphorylate PKBα at Ser473 is dependent upon the presence of PDK1. GST-PIF purified from 293 cells, FIG. 2C (20 μg in 50 μl) was incubated with Protein G-Sepharose (10 μl) conjugated with either no antibody (control), MSK1 antibody A [40] (5 μg, non specific antibody), a PDK1 antibody raised against the whole protein (5 μg) or a PDK1 peptide antibody raised against the 16 C-terminal amino acid residues of PDK1 (5 μg, peptide antibody) in the presence or absence of the PDK1 C-terminal peptide immunogen (0.2 mM) to which this antibody was raised. After incubation on a shaking platform for 60 min at 4° C., the suspension was centrifuged and GST-PIF in the supernatant (2.0 μg) was incubated with GST-PKBα and MgATP for 60 min at 30° C. in the presence or absence of phospholipid vesicles containing 100 μM PtdCho, 100 μM PtdSer, and 10 μM sn-1-stearoyl-2-arachidonoyl-D-PtdIns(3,4,5)P3 (1,2-SAD-PtdIns(3,4,5)P3), or sn-1,2 di-palmitoyl-D-PtdIns(3,4,5)P3 (C16-PtdIns(3,4,5)P3) or sn-1,2 di-palmitoyl-D-PtdIns(3,4)P2 (C16-PtdIns(3,4)P2). The reactions were terminated by making the solutions 1% in SDS, and the samples were subjected to SDS/polyacylamide gel electrophoresis and immunoblotted using the P-Ser473 antibody. Identical results were obtained in 2 separate experiments (B) The wild type and mutant GST-PIF proteins (2.0 μg) used in FIG. 3 were incubated with GST-PKBα and MgATP for 60 min at 30° C. in the presence or absence of lipid vesicles containing 10 μM sn-1-stearoyl-2-arachidonoyl-D-PtdIns(3,4,5)P3 and the degree of phosphorylation of PKBα at Ser473 was established by immunoblotting. Similar results were obtained in 4 separate experiments using 2 different preparations of the wild type and mutant GST-PIF proteins.
FIG. 7. Specificity of phosphoinositide-dependent PIF/PDK1-induced phosphorylation of Thr308 and Ser473 of PKBα. GST-PKBα was incubated for 60 min at 30° C. with GST-PIF purified from 293 cells (which is associated with endogenous PDK1 see FIG. 3) (1.0 μg), MgATP and phospholipid vesicles containing 100 μM PtdCho, 100 μM PtdSer, and various PtdIns lipids (numbered 1-11, see below) all at a final concentration of 10 μM in the assay. In panel A the reactions were terminated by the addition of Triton X100 and the increase in specific activity of GST-S473D-PKBα (U/mg), determined, relative to a control incubation in which GST-PIF was omitted (±SEM for 6 determinations, two independent experiments). The basal activity of GST-S473D-PKBα was 3.5 U/mg. In Panel B the reactions were terminated by making the solutions 1% in SDS, the samples were subjected to SDS/polyacylamide gel electrophoresis and the extent of PKBα phosphorylation was established using the phospho-specific antibody that recognises PKBα phosphorylated at Ser 473. In B the results of 2 separate experiments with different preparations of lipid are shown. Lipid 1, Buffer control; Lipid 2, PtdIns 3P; Lipid 3, n-1,2-dipalmitoyl PtdIns(3,4)P2; Lipid 4, PtdIns(3,5)P2; Lipid 5, PtdIns(4,5)P2; Lipid 6, sn-1,2-dipalmitoyl D-PtdIns(3,4,5)P3; Lipid 7, rac-1,2-dilinoleoyl phosphatidyl D/L-myo-inositol 3,4,5trisphosphate; Lipid 8, sn-1-stearoyl, 2-arachidonoyl D-PtdIns(3,4,5,)P3; Lipid 9, sn-1-stearoyl, 2-arachidonoyl L-PtdIns(3,4,5,)P3; Lipid 10, sn-2-stearoyl, 3-arachidonoyl D-PtdIns(3,4,5,)P3; Lipid 11, sn-2-ste aroyl, 3-arachidonoyl L-PtdIns(3,4,5,)P3.
Phosphorylation of GST-PKBα by incubation with GST-PIF. In experiments in which the phosphorylation of PKBα was determined using the phospho-specific Ser473 PKBα antibodies, the incubations were identical to the Stage 1 described above except that the reactions were terminated by the addition of 1% (by mass) SDS and immunoblotting is carried out as described below. In experiments in which the sites of phosphorylation on PKBα are determined the incubations were identical to the Stage 1 described above except [γ^32P] ATP (1000-2000 cpm/pmol) was used instead of unlabelled ATP. […]

The subject of a further assay is PDK1. As to the kind of experiment: Activation of GST-ΔPH-PKBα by PDK1 with or without PIF and phosphoinositide. In kind it is biochemical. Conditions: for rate at which GST-PIF/PDK1 complex activates GST-ΔPH-PKBα, presence versus absence of lipid: GST-PIF/PDK1 complex purified from 293 cells. On the procedure:
FIG. 8. Maximal activation of PKB by PDK1/PIF requires PtdIns(3,4,5)P3 to interact with both PKB and PDK1. […] The basal activity of GST-ΔPH-PKBα was 3.0 U/mg.
Measurement of PKBα activation after incubation with GST-PIF. This assay was carried out in 2 stages, as described previously; briefly, in the first, GST-PKBα was incubated with GST-PIF (or other indicated PDK1 proteins in the presence or absence of peptides) in the presence of MgATP and phospholipid vesicles.
In Stage 1, an 15 μl reaction mixture was set up containing 66.5 mM Tris/HCl pH 7.5, 0.13 mM EGTA, 0.13% (by vol) 2-mercaptoethanol, 3.3 μM PKI, 1.3 μM microcystin-LR, 13.3 mM Mg(Ac)2, 133 μM unlabelled ATP, 0.4 μM GST-PKBA, 133 μM PtdSer, 133 μM PtdCho in the presence or absence of 13.3 μM PtdIns(3,4,5)P3. The assay was initiated by the addition of 5 μl of 0.2 mg/ml GST-PIF (or other indicated proteins or peptides), after incubation for 30 min at 30° C., stage 2 of the assay was initiated by the addition of 30 μl of a mixture made up of Buffer B containing 2.5 μM PKI, 1 μM microcystin-LR, 10 mM Mg(Ac)2, 100 μM [γ^32P]ATP (200-400 cpm/pmol), 100 μM of the peptide RPRTAAF (SEQ ID NO:13) and 1.25% (by vol) Triton X-100. After 10 min at 30° C., the reactions were terminated by spotting the reaction mixture on to P81 phosphocellulose paper. The papers were washed in 75 mM phosphoric acid and analysed as described previously. A control reaction in which GST-PKBα was omitted was taken as the blank and was always less than 5% of the activity measured in the presence of GST-PKBα. The basal GST-PKBα activity is the activity measured in the absence of PDK1. 1 Unit of GST-PKBα activity was that amount of enzyme required to catalyse the phosphorylation of 1 nmol of the peptide RPRTAAF (SEQ ID NO:13) in 1 min. The assays were linear with time up to a final concentration of 3 U/ml of PDK1 activity in the assay.

T1 sequence (O15530 whole entry): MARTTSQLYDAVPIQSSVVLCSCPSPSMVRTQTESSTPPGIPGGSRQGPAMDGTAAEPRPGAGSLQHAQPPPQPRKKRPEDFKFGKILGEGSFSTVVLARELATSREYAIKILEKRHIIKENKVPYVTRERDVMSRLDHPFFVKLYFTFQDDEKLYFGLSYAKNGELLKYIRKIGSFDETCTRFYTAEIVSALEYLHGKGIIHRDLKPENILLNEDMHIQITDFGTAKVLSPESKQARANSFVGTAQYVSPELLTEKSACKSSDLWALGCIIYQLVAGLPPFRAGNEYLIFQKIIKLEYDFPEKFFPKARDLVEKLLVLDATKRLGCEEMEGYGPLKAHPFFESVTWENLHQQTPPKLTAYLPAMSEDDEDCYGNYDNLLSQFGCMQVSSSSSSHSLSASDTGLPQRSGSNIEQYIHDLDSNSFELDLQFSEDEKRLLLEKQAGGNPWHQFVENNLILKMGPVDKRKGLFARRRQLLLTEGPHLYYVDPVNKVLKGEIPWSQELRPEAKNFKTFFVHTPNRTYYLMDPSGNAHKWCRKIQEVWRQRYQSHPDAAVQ
T1 sequence (Q16513 908-984 partner): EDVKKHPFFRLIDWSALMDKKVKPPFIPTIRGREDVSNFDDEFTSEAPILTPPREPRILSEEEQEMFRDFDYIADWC

For the molecule PtdIns(4,5)P2 [Lipid 5], the “phosphorylation of GST-PKBα at Ser473” value at GST-PIF/PDK1 complex is “did not induce”. Also, the “rate at which GST-PIF/PDK1 complex activates GST-ΔPH-PKBα, presence versus absence of lipid” value in the assay on PDK1 is listed as “do not increase”.

As for `CCCCC/C=C\C/C=C\CCCCCCCC(=O)OCC(COP(=O)(O)OC1C(O)C(OP(=O)(O)O)C(OP(=O)(O)O)C(OP(=O)(O)O)C1O)OC(=O)CCCCCCC/C=C\C/C=C\CCCCC` (racemic) [Lipid 7, rac-1,2-dilinoleoyl phosphatidyl D/L-myo-inositol 3,4,5-trisphosphate], the “phosphorylation of GST-PKBα at Ser473” value on GST-PIF/PDK1 complex is given as “may also be effective”. Consider `CCCCCCCCCCCCCCCC(=O)OC[C@H](COP(=O)(O)OC1[C@H](O)[C@H](OP(=O)(O)O)C(OP(=O)(O)O)[C@H](OP(=O)(O)O)[C@H]1O)OC(=O)CCCCCCCCCCCCCCC` (stereo partly drawn) [Lipid 6, sn-1,2-dipalmitoyl D-PtdIns(3,4,5)P3], for which the “phosphorylation of GST-PKBα at Ser473” value at GST-PIF/PDK1 complex is “may also be effective”.

As for `CCCCC/C=C\C/C=C\C/C=C\C/C=C\CCCC(=O)O[C@H](COC(=O)CCCCCCCCCCCCCCCCC)COP(=O)(O)OC1[C@@H](O)[C@H](OP(=O)(O)O)C(OP(=O)(O)O)[C@H](OP(=O)(O)O)[C@H]1O` (stereo partly drawn) [Lipid 9, sn-1-stearoyl, 2-arachidonoyl L-PtdIns(3,4,5,)P3], the “phosphorylation of GST-PKBα at Ser473” value at GST-PIF/PDK1 complex is “failed to induce a significant phosphorylation; also recorded: may not induce”. Take PtdIns(3,5)P2 [Lipid 4]: the “phosphorylation of GST-PKBα at Ser473” value at GST-PIF/PDK1 complex is on record as “did not induce”. In the case of PtdIns-3P [Lipid 2], the “phosphorylation of GST-PKBα at Ser473” value on GST-PIF/PDK1 complex is “did not induce”. Further, in the assay with PDK1, the “rate at which GST-PIF/PDK1 complex activates GST-ΔPH-PKBα, presence versus absence of lipid” value is on record as “do not increase”. Consider “sn-2-ste aroyl, 3-arachidonoyl L-PtdIns(3,4,5,)P3 [Lipid 11]”, for which the “phosphorylation of GST-PKBα at Ser473” value at GST-PIF/PDK1 complex was “failed to induce a significant phosphorylation; also recorded: may not induce”. As for `CCCCC/C=C\C/C=C\C/C=C\C/C=C\CCCC(=O)O[C@H](COC(=O)CCCCCCCCCCCCCCCCC)COP(=O)(O)O[C@H]1[C@@H](O)[C@H](OP(=O)(O)O)[C@@H](OP(=O)(O)O)[C@H](OP(=O)(O)O)[C@H]1O` [Lipid 8, sn-1-stearoyl, 2-arachidonoyl D-PtdIns(3,4,5,)P3], the “phosphorylation of GST-PKBα at Ser473” value is on record as “highly effective; also recorded: may be capable of enhancing” on GST-PIF/PDK1 complex and “strongly phosphorylated” on GST-PIF/PDK1 complex (listed as PtdIns(3,4,5)P3). Also, in the assay on PDK1, the “rate at which GST-PIF/PDK1 complex activates GST-ΔPH-PKBα, presence versus absence of lipid” value is reported as ~4 fold. The “enhancement of the rate at which PDK1 complexed to PIF activates GST-ΔPH-PKBα” value with PDK1 (His-PDK1/GST-PIF*, presence versus absence of lipid) is reported as 3 to 4 fold. Further, in the assay on PDK1 (His-PDK1 alone, no PIF), the “rate at which His-PDK1 activates GST-ΔPH-PKBα, presence versus absence of lipid” value is “the same”. In the case of `CCCCC/C=C\C/C=C\C/C=C\C/C=C\CCCC(=O)OC[C@@H](COP(=O)(O)O[C@H]1[C@@H](O)[C@H](OP(=O)(O)O)[C@@H](OP(=O)(O)O)[C@H](OP(=O)(O)O)[C@H]1O)OC(=O)CCCCCCCCCCCCCCCCC` [Lipid 10, sn-2-stearoyl, 3-arachidonoyl D-PtdIns(3,4,5,)P3], at GST-PIF/PDK1 complex, the “phosphorylation of GST-PKBα at Ser473” value was “highly effective; also recorded: may be capable of enhancing”.

For the molecule `CCCCCCCCCCCCCCCC(=O)OCC(COP(=O)(O)OC1C(O)C(O)C(OP(=O)(O)O)C(OP(=O)(O)O)C1O)OC(=O)CCCCCCCCCCCCCCC` (stereo not drawn) [Lipid 3, sn-1,2-dipalmitoyl PtdIns(3,4)P2], the “phosphorylation of GST-PKBα at Ser473” value at GST-PIF/PDK1 complex was “may also be effective”; at GST-PIF/PDK1 complex (listed as PtdIns(3,4)P2) it was “strongly phosphorylated”. For the same molecule, in the assay with PDK1, the “rate at which GST-PIF/PDK1 complex activates GST-ΔPH-PKBα, presence versus absence of lipid” value is ~4 fold.
